Source: US11492335B2, “Aryl or heteroaryl triazolone derivatives or salts thereof, or pharmaceutical compositions comprising the same” (YUHAN CORPORATION, priority 2018, dated 2022)
Counter-ions that a name gives are not always drawn.

How the values were obtained:
Format in all cases: biochemical
recombinant human VAP-1 = target: T1, recombinant human VAP-1 (Homo sapiens, UniProt Q16853); test: Activity on recombinant human VAP-1, Amplex Red HRP-coupled hydrogen peroxide assay, benzylamine substrate; details: recombinant human VAP-1, benzylamine substrate, 30 min preincubation at 37° C.; read-out: Inhibitory Activity (IC50, nM) human VAP-1
T1 construct: purchased R&D systems
T1 sequence (Q16853 1-763): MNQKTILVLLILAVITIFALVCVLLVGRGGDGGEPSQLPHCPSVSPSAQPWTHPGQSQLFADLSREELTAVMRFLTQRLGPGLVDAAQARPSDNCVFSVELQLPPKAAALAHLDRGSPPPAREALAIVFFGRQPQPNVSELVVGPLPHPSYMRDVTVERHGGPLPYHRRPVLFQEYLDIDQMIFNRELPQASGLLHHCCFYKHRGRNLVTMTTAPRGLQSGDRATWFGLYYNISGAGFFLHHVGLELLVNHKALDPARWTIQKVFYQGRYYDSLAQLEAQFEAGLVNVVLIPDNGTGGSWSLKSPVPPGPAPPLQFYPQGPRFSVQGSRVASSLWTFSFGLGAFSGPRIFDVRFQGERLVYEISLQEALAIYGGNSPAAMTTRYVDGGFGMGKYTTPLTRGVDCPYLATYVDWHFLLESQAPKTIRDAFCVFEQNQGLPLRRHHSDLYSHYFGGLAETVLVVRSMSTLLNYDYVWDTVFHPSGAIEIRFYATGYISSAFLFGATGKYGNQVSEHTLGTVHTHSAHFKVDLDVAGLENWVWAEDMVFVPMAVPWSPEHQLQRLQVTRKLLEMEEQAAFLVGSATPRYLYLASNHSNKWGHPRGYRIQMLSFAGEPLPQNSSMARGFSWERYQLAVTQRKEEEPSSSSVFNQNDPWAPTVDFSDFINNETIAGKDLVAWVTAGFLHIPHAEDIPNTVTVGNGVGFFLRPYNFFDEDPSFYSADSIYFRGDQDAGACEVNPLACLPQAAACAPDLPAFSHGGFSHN
In short: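 H2O2 generation from 1 mM benzylamine was coupled via 1 U/mL HRP to 200 uM Amplex Red; inhibitors, serially diluted 1:3 over 8 points with under 1% final DMSO, had been preincubated 30 min at 37 °C. IC50 from percentage drop in rate.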

[1] = target: T2, recombinant human MAO-A (monoamine oxidase-A) (Homo sapiens, UniProt P21397); test: Activity on recombinant human MAO-A, Amplex Red method, 0.5 mM tyramine substrate; details: 0.5 mM tyramine, read-out: Inhibitory Activity (IC50, nM) MAO-A
T2 construct: purchased Sigma-Aldrich
T2 sequence (P21397 1-527): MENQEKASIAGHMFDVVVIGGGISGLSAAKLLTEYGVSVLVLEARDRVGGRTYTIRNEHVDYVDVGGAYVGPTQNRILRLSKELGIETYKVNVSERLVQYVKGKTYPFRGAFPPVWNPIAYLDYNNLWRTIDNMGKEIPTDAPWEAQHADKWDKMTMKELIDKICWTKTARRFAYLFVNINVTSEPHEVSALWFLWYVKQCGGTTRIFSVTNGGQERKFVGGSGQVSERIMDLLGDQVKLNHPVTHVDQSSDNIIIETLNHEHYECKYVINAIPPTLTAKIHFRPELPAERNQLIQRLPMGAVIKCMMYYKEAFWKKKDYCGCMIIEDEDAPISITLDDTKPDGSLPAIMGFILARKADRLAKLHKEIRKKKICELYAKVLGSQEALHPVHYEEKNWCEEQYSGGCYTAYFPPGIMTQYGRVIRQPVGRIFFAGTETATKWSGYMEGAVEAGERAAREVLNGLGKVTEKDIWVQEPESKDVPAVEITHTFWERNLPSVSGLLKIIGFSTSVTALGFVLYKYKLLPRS
In short: (§1)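 First, serially diluted compounds were incubated with recombinant enzyme in 50 mM sodium phosphate, pH 7.4, for 30 min at 37° C. Next, Amplex Red (200 uM), HRP (1 U/mL) and tyramine (0.5 mM, MAO-A) or benzylamine (1 mM, MAO-B) were added. Then fluorescence was monitored over 1-2 h and IC50 fitted.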

[2] = target: T3, recombinant human MAO-B (monoamine oxidase-B) (Homo sapiens, UniProt P27338); test: Activity on recombinant human MAO-B, Amplex Red method, 1 mM benzylamine substrate; details: 1 mM benzylamine, read-out: Inhibitory Activity (IC50, nM) MAO-B
T3 construct: purchased Sigma-Aldrich
T3 sequence (P27338 1-520): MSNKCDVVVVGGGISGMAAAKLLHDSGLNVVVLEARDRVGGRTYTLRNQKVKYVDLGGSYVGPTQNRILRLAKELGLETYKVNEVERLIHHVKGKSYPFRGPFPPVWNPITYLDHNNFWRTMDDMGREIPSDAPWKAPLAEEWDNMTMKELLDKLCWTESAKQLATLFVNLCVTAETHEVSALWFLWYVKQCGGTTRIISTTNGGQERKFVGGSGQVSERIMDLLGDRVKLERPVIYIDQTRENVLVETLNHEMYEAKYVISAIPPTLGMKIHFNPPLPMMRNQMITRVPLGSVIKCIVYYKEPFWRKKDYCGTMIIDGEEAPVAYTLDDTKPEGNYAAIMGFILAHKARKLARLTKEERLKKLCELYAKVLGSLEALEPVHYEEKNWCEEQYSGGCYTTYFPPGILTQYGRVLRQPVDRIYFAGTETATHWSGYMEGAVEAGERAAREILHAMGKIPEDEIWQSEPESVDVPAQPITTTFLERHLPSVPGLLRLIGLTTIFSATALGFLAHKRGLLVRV
In short: as §1

[3] = target: T4, recombinant human DAO (diamine oxidase) (Homo sapiens, UniProt P19801); test: Activity on recombinant human DAO, Amplex Red method, 1 mM putrescine substrate; details: recombinant human DAO, 1 mM putrescine; * = between 10 and 100 nM, ** = between 300 and 1000 nM; read-out: Inhibitory Activity (IC50, nM) DAO
T4 construct: purchased R&D systems
T4 sequence (P19801 20-751): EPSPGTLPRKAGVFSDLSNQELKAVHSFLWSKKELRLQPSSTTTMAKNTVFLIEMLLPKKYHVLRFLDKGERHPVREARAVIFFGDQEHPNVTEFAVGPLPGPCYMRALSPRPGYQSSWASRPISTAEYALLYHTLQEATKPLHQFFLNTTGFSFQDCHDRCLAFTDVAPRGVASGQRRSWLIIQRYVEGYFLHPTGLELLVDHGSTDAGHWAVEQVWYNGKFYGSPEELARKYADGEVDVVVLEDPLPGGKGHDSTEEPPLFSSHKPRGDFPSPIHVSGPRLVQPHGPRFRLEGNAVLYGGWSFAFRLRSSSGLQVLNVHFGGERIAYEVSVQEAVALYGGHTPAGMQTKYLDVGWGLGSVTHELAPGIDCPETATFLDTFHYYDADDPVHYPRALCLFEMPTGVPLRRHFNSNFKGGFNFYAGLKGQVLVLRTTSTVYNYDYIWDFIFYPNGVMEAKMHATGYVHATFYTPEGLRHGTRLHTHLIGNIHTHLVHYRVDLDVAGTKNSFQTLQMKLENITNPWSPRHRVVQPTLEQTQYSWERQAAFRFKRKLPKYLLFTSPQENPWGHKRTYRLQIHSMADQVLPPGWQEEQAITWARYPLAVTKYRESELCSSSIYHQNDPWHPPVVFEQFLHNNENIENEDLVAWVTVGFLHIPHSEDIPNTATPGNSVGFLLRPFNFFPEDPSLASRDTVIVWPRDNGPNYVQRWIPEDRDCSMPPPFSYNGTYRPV
In short: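 Inhibition of recombinant human DAO (diamine oxidase, R&D systems) was assessed with the Amplex Red Hydrogen Peroxide Assay Kit. Hydrogen peroxide produced from 1 mM putrescine was detected through an HRP-coupled reaction that converts Amplex Red into fluorescent resorufin, read at 544 nm excitation and 590 nm emission. IC50 values came from four-parameter logistic fits in GraphPad Prism.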

CN(C)c1ccc(-c2cccc(-n3cnn(C/C(=C/F)CN)c3=O)c2)cc1 [Example 51, 2-[(2E)-2-(aminomethyl)-3-fluoroprop-2-en-1-yl]-4-[4′-(dimethylamino)biphenyl-3-yl]-2,4-dihydro-3H-1,2,4-triazol-3-one hydrochloride]
IC50 (recombinant human VAP-1): 2 nM
IC50 [1]: > 100000 nM
IC50 [2]: 5600 nM
IC50 [3]: > 10000 nM

CC(C)Sc1ccc(-c2cccc(-n3cnn(C/C(=C/F)CN)c3=O)c2)cc1 [Example 52, 2-[(2E)-2-(aminomethyl)-3-fluoroprop-2-en-1-yl]-4-[4′-(propan-2-ylsulfanyl)biphenyl-3-yl]-2,4-dihydro-3H-1,2,4-triazol-3-one hydrochloride]
IC50 (recombinant human VAP-1): 1.2 nM
IC50 [1]: 50000 nM
IC50 [2]: 3600 nM
IC50 [3]: 24 nM

CS(=O)(=O)c1ccc(-c2cccc(-n3cnn(C/C(=C/F)CN)c3=O)c2)cc1 [Example 54, 2-[(2E)-2-(aminomethyl)-3-fluoroprop-2-en-1-yl]-4-[4′-(methylsulfonyl)biphenyl-3-yl]-2,4-dihydro-3H-1,2,4-triazol-3-one hydrochloride]
IC50 (recombinant human VAP-1): 0.4 nM
IC50 [1]: > 100000 nM
IC50 [2]: > 10000 nM
IC50 [3]: < 100 nM

CN(C)S(=O)(=O)c1ccc(-c2cccc(-n3cnn(C/C(=C/F)CN)c3=O)c2)cc1 [Example 55, 3′-{1-[(2E)-2-(aminomethyl)-3-fluoroprop-2-en-1-yl]-5-oxo-1,5-dihydro-4H-1,2,4-triazol-4-yl}-N,N-dimethylbiphenyl-4-sulfonamide hydrochloride]
IC50 (recombinant human VAP-1): 0.3 nM
IC50 [1]: > 100000 nM
IC50 [2]: 1500 nM
IC50 [3]: 1 nM

CC(=O)Nc1ccc(-c2cccc(-n3cnn(C/C(=C\F)CN)c3=O)c2)cc1 [Example 56, N-(3′-{1-[(2Z)-2-(aminomethyl)-3-fluoroprop-2-en-1-yl]-5-oxo-1,5-dihydro-4H-1,2,4-triazol-4-yl}biphenyl-4-yl)acetamide hydrochloride]
IC50 (recombinant human VAP-1): 0.75 nM
IC50 [1]: 5100 nM
IC50 [2]: > 10000 nM
IC50 [3]: 110 nM

CC(=O)Nc1ccc(-c2cccc(-n3cnn(C/C(=C/F)CN)c3=O)c2)cc1 [Example 57, N-(3′-{1-[(2E)-2-(aminomethyl)-3-fluoroprop-2-en-1-yl]-5-oxo-1,5-dihydro-4H-1,2,4-triazol-4-yl}biphenyl-4-yl)acetamide hydrochloride]
IC50 (recombinant human VAP-1): 0.38 nM
IC50 [1]: 1250 nM
IC50 [2]: > 10000 nM
IC50 [3]: < 100 nM

NC/C(=C/F)Cn1ncn(-c2cccc(-c3ccc(-c4nnc[nH]4)cc3)c2)c1=O [Example 58, 2-[(2Z)-2-(aminomethyl)-3-fluoroprop-2-en-1-yl]-4-[4′-(4H-1,2,4-triazol-3-yl)biphenyl-3-yl]-2,4-dihydro-3H-1,2,4-triazol-3-one]
IC50 (recombinant human VAP-1): 0.63 nM
IC50 [1]: > 100000 nM
IC50 [2]: > 10000 nM
IC50 [3]: < 100 nM

NC/C(=C\F)Cn1ncn(-c2cccc(-c3ccc(-c4nnc[nH]4)cc3)c2)c1=O [Example 59, 2-[(2E)-2-(aminomethyl)-3-fluoroprop-2-en-1-yl]-4-[4′-(4H-1,2,4-triazol-3-yl)biphenyl-3-yl]-2,4-dihydro-3H-1,2,4-triazol-3-one]
IC50 (recombinant human VAP-1): 0.62 nM
IC50 [1]: > 100000 nM
IC50 [2]: > 10000 nM
IC50 [3]: < 100 nM

NC/C(=C\F)Cn1ncn(-c2cccc(-c3ccc(-c4ncon4)cc3)c2)c1=O [Example 61, 2-[(2E)-2-(aminomethyl)-3-fluoroprop-2-en-1-yl]-4-[4′-(1,2,4-oxadiazol-3-yl)biphenyl-3-yl]-2,4-dihydro-3H-1,2,4-triazol-3-one]
IC50 (recombinant human VAP-1): 0.65 nM
IC50 [1]: 62000 nM
IC50 [2]: 998 nM
IC50 [3]: < 100 nM

NC/C(=C\F)Cn1ncn(-c2cccc(-c3cccc(-c4ncon4)c3)c2)c1=O [Example 62, 2-[(2E)-2-(aminomethyl)-3-fluoroprop-2-en-1-yl]-4-[3′-(1,2,4-oxadiazol-3-yl)biphenyl-3-yl]-2,4-dihydro-3H-1,2,4-triazol-3-one]
IC50 (recombinant human VAP-1): 0.53 nM
IC50 [1]: > 100000 nM
IC50 [2]: 117 nM
IC50 [3]: < 100 nM

NC/C(=C\F)Cn1ncn(-c2cccc(-c3ccc(-c4noc(C5CC5)n4)cc3)c2)c1=O [Example 63, 2-[(2E)-2-(aminomethyl)-3-fluoroprop-2-en-1-yl]-4-[4′-(5-cyclopropyl-1,2,4-oxadiazol-3-yl)biphenyl-3-yl]-2,4-dihydro-3H-1,2,4-triazol-3-one hydrochloride]
IC50 (recombinant human VAP-1): 1 nM
IC50 [1]: > 100000 nM
IC50 [2]: > 10000 nM
IC50 [3]: < 30 nM

CC(C)c1nc(-c2ccc(-c3cccc(-n4cnn(C/C(=C/F)CN)c4=O)c3)cc2)no1 [Example 64, 2-[(2E)-2-(aminomethyl)-3-fluoroprop-2-en-1-yl]-4-{4′-[5-(propan-2-yl)-1,2,4-oxadiazol-3-yl]biphenyl-3-yl}-2,4-dihydro-3H-1,2,4-triazol-3-one hydrochloride]
IC50 (recombinant human VAP-1): 3.2 nM
IC50 [1]: 6030 nM
IC50 [2]: > 10000 nM
IC50 [3]: < 30 nM
